{
  "source": "paper PMC9933715",
  "about": "(Antimicrobial Agents and Chemotherapy, 2023)",
  "key": {"[1]": {"system": "Huh7.5 cells", "experiment": "Cell viability, CellTiter-Glo luminescent assay", "conditions": "deconvolution screen, singletons, 50 µM, uninfected Huh7.5"}, "[2]": {"system": "ZIKV-R2A (strain FSS13025)", "experiment": "microbe, parasite or virus in culture", "format": "cell-based", "conditions": "Zika virus, Huh7.5, 48 h, read-out: ZIKV-R2A replication (fold DMSO) Mean"}, "[3]": {"system": "DENV-R2A (Rluc-expressing DENV, serotype 2 strain 16681)", "experiment": "microbe, parasite or virus in culture", "format": "cell-based, Dengue virus", "conditions": "Dengue virus, Huh7.5, 48 h, read-out: DENV-R2A replication (fold DMSO) Mean, deconvolution screen, singletons, 50 µM, Huh7.5, 2 days postinfection"}},
  "data": [
    {"smiles": "O=C(O)Cc1ccc(O)cc1", "note": "[PS-5568, OC(=O)Cc1ccc(O)cc1]", "values": [
      {"measurement": "Cell viability (fold DMSO) Mean", "setting": "[1]", "result": 0.98, "unit": "fold DMSO"},
      {"measurement": "activity at 50 µM", "setting": "[2]", "result": 103, "unit": "%"},
      {"measurement": "activity at 50 µM", "setting": "[3]", "result": 97, "unit": "%"}
    ]},
    {"smiles": "Nc1oncc1-c1ccc(Cl)cc1", "note": "[FS-2048, Nc1oncc1c2ccc(Cl)cc2]", "values": [
      {"measurement": "Cell viability (fold DMSO) Mean", "setting": "[1]", "result": 0.90, "unit": "fold DMSO"},
      {"measurement": "activity at 50 µM", "setting": "[2]", "result": 61, "unit": "%"},
      {"measurement": "activity at 50 µM", "setting": "[3]", "result": 57, "unit": "%"}
    ]},
    {"smiles": "OCc1cc2c(cc1Br)OCO2", "note": "[Compound 10P-113, OCc1cc2OCOc2cc1Br]", "values": [
      {"measurement": "Cell viability (fold DMSO) Mean", "setting": "[1]", "result": 0.88, "unit": "fold DMSO"},
      {"measurement": "activity at 50 µM", "setting": "[2]", "result": 103, "unit": "%"},
      {"measurement": "activity at 50 µM", "setting": "[3]", "result": 86, "unit": "%"}
    ]},
    {"smiles": "CC(=O)c1ccc2cc(O)ccc2c1", "note": "[Compound 8X-0242, CC(=O)c1ccc2cc(O)ccc2c1]", "values": [
      {"measurement": "Cell viability (fold DMSO) Mean", "setting": "[1]", "result": 1.00, "unit": "fold DMSO"},
      {"measurement": "activity at 50 µM", "setting": "[2]", "result": 81, "unit": "%"},
      {"measurement": "activity at 50 µM", "setting": "[3]", "result": 86, "unit": "%"}
    ]},
    {"smiles": "Clc1ncc(CN2CCCCC2)s1", "note": "[Compound 8N-010, Clc1ncc(CN2CCCCC2)s1]", "values": [
      {"measurement": "Cell viability (fold DMSO) Mean", "setting": "[1]", "result": 0.95, "unit": "fold DMSO"},
      {"measurement": "activity at 50 µM", "setting": "[2]", "result": 111, "unit": "%"},
      {"measurement": "activity at 50 µM", "setting": "[3]", "result": 101, "unit": "%"}
    ]},
    {"smiles": "OCC1CN(Cc2ccccc2)CCO1", "note": "(stereo not drawn) [PS-4274, OCC1CN(Cc2ccccc2)CCO1]", "values": [
      {"measurement": "Cell viability (fold DMSO) Mean", "setting": "[1]", "result": 1.11, "unit": "fold DMSO"},
      {"measurement": "activity at 50 µM", "setting": "[2]", "result": 116, "unit": "%"},
      {"measurement": "activity at 50 µM", "setting": "[3]", "result": 100, "unit": "%"}
    ]},
    {"smiles": "CC1(C)CN2C(=O)c3ccccc3C2S1", "note": "(stereo not drawn) [Compound 12R-0242, CC1(C)CN2C(S1)c3ccccc3C2=O]", "values": [
      {"measurement": "Cell viability (fold DMSO) Mean", "setting": "[1]", "result": 0.81, "unit": "fold DMSO"},
      {"measurement": "activity at 50 µM", "setting": "[2]", "result": 74, "unit": "%"},
      {"measurement": "activity at 50 µM", "setting": "[3]", "result": 62, "unit": "%"}
    ]},
    {"smiles": "CSc1ccccc1N1CCNCC1", "note": "[SS-4074, CSc1ccccc1N2CCNCC2]", "values": [
      {"measurement": "Cell viability (fold DMSO) Mean", "setting": "[1]", "result": 0.92, "unit": "fold DMSO"},
      {"measurement": "activity at 50 µM", "setting": "[2]", "result": 100, "unit": "%"},
      {"measurement": "activity at 50 µM", "setting": "[3]", "result": 79, "unit": "%"}
    ]},
    {"smiles": "COC(=O)[C@H]1CCC(=O)N1", "note": "[AS-7023, COC(=O)[C@H]1CCC(=O)N1]", "values": [
      {"measurement": "Cell viability (fold DMSO) Mean", "setting": "[1]", "result": 1.19, "unit": "fold DMSO"},
      {"measurement": "activity at 50 µM", "setting": "[2]", "result": 103, "unit": "%"},
      {"measurement": "activity at 50 µM", "setting": "[3]", "result": 102, "unit": "%"}
    ]},
    {"smiles": "OCc1c[nH]c(-c2ccccc2)n1", "note": "[CB-0713, OCc1c[nH]c(n1)c2ccccc2]", "values": [
      {"measurement": "Cell viability (fold DMSO) Mean", "setting": "[1]", "result": 1.02, "unit": "fold DMSO"},
      {"measurement": "activity at 50 µM", "setting": "[2]", "result": 100, "unit": "%"},
      {"measurement": "activity at 50 µM", "setting": "[3]", "result": 92, "unit": "%"}
    ]},
    {"smiles": "COc1ccc2cc[nH]c2n1", "note": "[SS-4327, COc1ccc2cc[nH]c2n1]", "values": [
      {"measurement": "Cell viability (fold DMSO) Mean", "setting": "[1]", "result": 1.01, "unit": "fold DMSO"},
      {"measurement": "activity at 50 µM", "setting": "[2]", "result": 108, "unit": "%"},
      {"measurement": "activity at 50 µM", "setting": "[3]", "result": 98, "unit": "%"}
    ]},
    {"smiles": "Nc1ccc(Cl)nn1", "note": "[PS-5236, Nc1ccc(Cl)nn1]", "values": [
      {"measurement": "Cell viability (fold DMSO) Mean", "setting": "[1]", "result": 1.18, "unit": "fold DMSO"},
      {"measurement": "activity at 50 µM", "setting": "[2]", "result": 108, "unit": "%"},
      {"measurement": "activity at 50 µM", "setting": "[3]", "result": 108, "unit": "%"}
    ]},
    {"smiles": "Cc1ccnc2ccccc12", "note": "[PS-3771, Cc1ccnc2ccccc12]", "values": [
      {"measurement": "Cell viability (fold DMSO) Mean", "setting": "[1]", "result": 0.92, "unit": "fold DMSO"},
      {"measurement": "activity at 50 µM", "setting": "[2]", "result": 107, "unit": "%"},
      {"measurement": "activity at 50 µM", "setting": "[3]", "result": 101, "unit": "%"}
    ]},
    {"smiles": "CC1CCN(Cc2ccc(Cl)nc2)CC1", "note": "[Compound 2X-0836, CC1CCN(Cc2ccc(Cl)nc2)CC1]", "values": [
      {"measurement": "Cell viability (fold DMSO) Mean", "setting": "[1]", "result": 1.16, "unit": "fold DMSO"},
      {"measurement": "activity at 50 µM", "setting": "[2]", "result": 104, "unit": "%"},
      {"measurement": "activity at 50 µM", "setting": "[3]", "result": 89, "unit": "%"}
    ]},
    {"smiles": "C[C@@H](O)c1cccc(C(F)(F)F)c1", "note": "[PS-6325, C[C@@H](O)c1cccc(c1)C(F)(F)F]", "values": [
      {"measurement": "Cell viability (fold DMSO) Mean", "setting": "[1]", "result": 1.07, "unit": "fold DMSO"},
      {"measurement": "activity at 50 µM", "setting": "[2]", "result": 108, "unit": "%"},
      {"measurement": "activity at 50 µM", "setting": "[3]", "result": 103, "unit": "%"}
    ]},
    {"smiles": "Nc1ccc(Cl)cc1Br", "note": "[PS-3798, Nc1ccc(Cl)cc1Br]", "values": [
      {"measurement": "Cell viability (fold DMSO) Mean", "setting": "[1]", "result": 0.99, "unit": "fold DMSO"},
      {"measurement": "activity at 50 µM", "setting": "[2]", "result": 111, "unit": "%"},
      {"measurement": "activity at 50 µM", "setting": "[3]", "result": 94, "unit": "%"}
    ]},
    {"smiles": "CCN1C(=O)CCCc2ccccc21", "note": "[Compound 11N-585S, CCN1C(=O)CCCc2ccccc12]", "values": [
      {"measurement": "Cell viability (fold DMSO) Mean", "setting": "[1]", "result": 0.93, "unit": "fold DMSO"},
      {"measurement": "activity at 50 µM", "setting": "[2]", "result": 97, "unit": "%"},
      {"measurement": "activity at 50 µM", "setting": "[3]", "result": 102, "unit": "%"}
    ]},
    {"smiles": "CN1CCN(c2ccccc2CN)CC1", "note": "[PS-3674, CN1CCN(CC1)c2ccccc2CN]", "values": [
      {"measurement": "Cell viability (fold DMSO) Mean", "setting": "[1]", "result": 0.94, "unit": "fold DMSO"},
      {"measurement": "activity at 50 µM", "setting": "[2]", "result": 89, "unit": "%"},
      {"measurement": "activity at 50 µM", "setting": "[3]", "result": 60, "unit": "%"}
    ]},
    {"smiles": "COc1cc(F)c(C#N)c(F)c1", "note": "[PS-6866, COc1cc(F)c(C#N)c(F)c1]", "values": [
      {"measurement": "Cell viability (fold DMSO) Mean", "setting": "[1]", "result": 1.01, "unit": "fold DMSO"},
      {"measurement": "activity at 50 µM", "setting": "[2]", "result": 115, "unit": "%"},
      {"measurement": "activity at 50 µM", "setting": "[3]", "result": 97, "unit": "%"}
    ]},
    {"smiles": "O=C(O)c1ccc(N2CCCCC2)nn1", "note": "[PS-5724, OC(=O)c1ccc(nn1)N2CCCCC2]", "values": [
      {"measurement": "Cell viability (fold DMSO) Mean", "setting": "[1]", "result": 1.01, "unit": "fold DMSO"},
      {"measurement": "activity at 50 µM", "setting": "[2]", "result": 106, "unit": "%"},
      {"measurement": "activity at 50 µM", "setting": "[3]", "result": 107, "unit": "%"}
    ]},
    {"smiles": "Cc1cc2c(cc1C)NC(C)CC(=O)N2", "note": "(stereo not drawn) [Compound 12W-0869, CC1CC(=O)Nc2cc(C)c(C)cc2N1]", "values": [
      {"measurement": "Cell viability (fold DMSO) Mean", "setting": "[1]", "result": 1.09, "unit": "fold DMSO"},
      {"measurement": "activity at 50 µM", "setting": "[2]", "result": 97, "unit": "%"},
      {"measurement": "activity at 50 µM", "setting": "[3]", "result": 85, "unit": "%"}
    ]}
  ]
}
